Molecular target: T1, recombinant human DPPI (Cathepsin C) (Homo sapiens, UniProt P53634)
T1 construct: purchased Prozymex
Assay: Inhibition of Human DPPI (Cathepsin C)
Type: biochemical
Conditions: substrate Gly-Arg-AMC 50 μM, MES buffer pH 6.0, 30 min at room temperature, fluorescence readout
Text: Inhibition of Human DPPI (Cathepsin C)
Materials: Microtiterplates (Optiplate-384 F) were purchased from PerkinElmer (Prod.No. 10 6007270). The substrate Gly-Arg-AMC was from Biotrend (Prod.-No. 808756 Custom peptide).
Bovine serum albumin (BSA; Prod.No. A3059) and Dithiothreitol (DTT; Prod.No D0632) were from Sigma. TagZyme buffer was from Riedel-de-Haen (Prod.-No. 04269), NaCl was from Merck (Prod.-No. 1.06404.1000) and morpholinoethane sulfonic acid (MES), was from Serva (Prod.-No.
29834). The DPP1 inhibitor Gly-Phe-DMK was purchased from MP Biomedicals 15 (Prod.-No. 03DK00625). The recombinant human DPPI was purchased from Prozymex. All other materials were of highest grade commercially available.
The following buffers were used: MES buffer: 25 mM MES, 50 mM NaCl, 5 mM DTT, adjusted to pH 6.0, containing 0.1% BSA; TAGZyme Buffer: 20 mM NaH2PO4, 150 mM NaCl adjusted to pH […]
Assay conditions: The recombinant human DPPI was diluted in TAGZyme buffer to 1 U/ml (38.1 μg/ml, respectively), and then activated by mixing in a 1:2 ratio with a Cysteamine aqueous solution (2 mM) and incubating for 5 min at room temperature.
Five uL test compound (final concentration 0.1 nM to 100 μM) in aqua bidest 5 (containing 4% DMSO, final DMSO concentration 1%) were mixed with 10 μL of DPPI in MES buffer (final concentration 0.0125 ng/μL) and incubated for 10 min. Then, 5 μL of substrate in MES buffer (final concentration 50 μM) were added. The microtiter plates were then incubated at room temperature for 30 min. Then, the reaction was stopped by adding 10 μL of Gly-Phe-DMK in 10 MES-buffer (final concentration 1 μM). The fluorescence in the wells was determined using a Molecular Devices SpectraMax M5 Fluorescence Reader (Ex 360 nm, Em 460 nm) or an Envision Fluorescence Reader (Ex 355 nm, Em 460 nm).
Each assay microtiter plate contained wells with vehicle controls (1% DMSO in bidest+0.075% 15 BSA) as reference for non-inhibited enzyme activity (100% Ctl; high values) and wells with inhibitor (Gly-Phe-DMK, in bidest+1% DMSO+0.075% BSA, final concentration 1 μM) as controls for background fluorescence (0% Ctl; low values).
The analysis of the data was performed by calculating the percentage of fluorescence in the presence of test compound in comparison to the fluorescence of the vehicle control after 20 subtracting the background fluorescence using the following formula: (RFU(sample)−RFU(background))*100/(RFU(control)−RFU(background)) […]
Data from these calculations were used to generate IC50 values for inhibition of DPPI, respectively.

T1 sequence (P53634 231-394 limits assumed): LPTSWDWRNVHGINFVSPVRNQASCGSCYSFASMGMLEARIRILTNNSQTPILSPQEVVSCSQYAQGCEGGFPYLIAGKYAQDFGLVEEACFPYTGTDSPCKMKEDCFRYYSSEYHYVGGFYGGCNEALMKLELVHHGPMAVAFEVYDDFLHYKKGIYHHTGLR
T1 sequence (P53634 395-463 limits assumed): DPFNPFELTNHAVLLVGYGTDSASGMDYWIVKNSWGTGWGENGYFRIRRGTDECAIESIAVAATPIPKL
T1 sequence (P53634 25-143 limits assumed): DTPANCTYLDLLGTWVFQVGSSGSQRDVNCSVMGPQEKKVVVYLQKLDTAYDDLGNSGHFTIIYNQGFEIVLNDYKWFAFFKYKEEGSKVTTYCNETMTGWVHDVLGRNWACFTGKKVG

IC50 | Structure (SMILES)
11.7 nM | N#C[C@H](Cc1ccc(N2CCN(C3COC3)CC2)cc1F)NC(=O)[C@H]1N[C@@H]2CC[C@H]1C2 [Example 1, (1S,2S,4R)—N-[(1S)-1-cyano-2-[2-fluoro-4-[4-(oxetan-3-yl)piperazin-1-yl]phenyl]ethyl]-3-azabicyclo[2.2.1]heptane-2-carboxamide]
14.4 nM | N#C[C@H](Cc1ccc(N2C3CCC2CN(C2COC2)C3)cc1F)NC(=O)[C@H]1N[C@@H]2CC[C@H]1C2 [Example 2]
21.6 nM | N#C[C@H](Cc1ccc(N2CC3(C2)CN(C2COC2)C3)cc1F)NC(=O)[C@H]1N[C@@H]2CC[C@H]1C2 [Example 3]
5.6 nM | N#C[C@H](Cc1ccc(C2=CCN(C3COC3)CC2)cc1F)NC(=O)[C@H]1N[C@@H]2CC[C@H]1C2 [Example 4, (1S,2S,4R)—N-[(1S)-1-cyano-2-[2-fluoro-4-[1-(oxetan-3-yl)-3,6-dihydro-2H-pyridin-4-yl]phenyl]ethyl]-3-azabicyclo[2.2.1]heptane-2-carboxamide]
16.5 nM | N#C[C@H](Cc1ccc(N2CC3CN(C4COC4)CC3C2)cc1F)NC(=O)[C@H]1N[C@@H]2CC[C@H]1C2 (stereo partly drawn) [Example 5, (1S,2S,4R)—N-[(1S)-1-cyano-2-[2-fluoro-4-[5-(oxetan-3-yl)-1,3,3a,4,6,6a-hexahydropyrrolo[3,4-c]pyrrol-2-yl]phenyl]ethyl]-3-azabicyclo[2.2.1]heptane-2-carboxamide]
13.5 nM | N#C[C@H](Cc1ccc(N2CC3CCN(C4COC4)C3C2)cc1F)NC(=O)[C@H]1N[C@@H]2CC[C@H]1C2 (stereo partly drawn) [Example 6]
9.9 nM | N#C[C@H](Cc1ccc(N2CCC3CN(C4COC4)CC32)cc1F)NC(=O)[C@H]1N[C@@H]2CC[C@H]1C2 (stereo partly drawn) [Example 7]
35.5 nM | N#C[C@H](Cc1ccc(N2CCC3C2CCN3C2COC2)cc1F)NC(=O)[C@H]1N[C@@H]2CC[C@H]1C2 (stereo partly drawn) [Example 8]
17.6 nM | N#C[C@H](Cc1ccc(N2CCC3C2CCN3C2COC2)cc1F)NC(=O)[C@H]1N[C@@H]2CC[C@H]1C2 (stereo partly drawn) [Example 9]
60.1 nM | N#C[C@H](Cc1ccc(C2CCN(C3COC3)CC2)cc1F)NC(=O)[C@H]1N[C@@H]2CC[C@H]1C2 [Example 10, (1S,2S,4R)—N-[(1S)-1-cyano-2-[2-fluoro-4-[1-(oxetan-3-yl)-4-piperidyl]phenyl]ethyl]-3-azabicyclo[2.2.1]heptane-2-carboxamide]
52.7 nM | N#C[C@H](Cc1ccc(C2CCCN(C3COC3)C2)cc1F)NC(=O)[C@H]1N[C@@H]2CC[C@H]1C2 (stereo partly drawn) [Example 11]
29.4 nM | N#C[C@H](Cc1ccc(C2CCN(C3COC3)C2)cc1F)NC(=O)[C@H]1N[C@@H]2CC[C@H]1C2 (stereo partly drawn) [Example 12]
79.7 nM | N#C[C@H](Cc1ccc(C2CC3CN(C4COC4)CC3C2)cc1F)NC(=O)[C@H]1N[C@@H]2CC[C@H]1C2 (stereo partly drawn) [Example 13]
29.3 nM | N#C[C@H](Cc1ccc(C2CC3CN(C4COC4)CC3C2)cc1F)NC(=O)[C@H]1N[C@@H]2CC[C@H]1C2 (stereo partly drawn) [Example 14]
66.5 nM | N#C[C@H](Cc1ccc(N2CCN(C3COC3)CC2)cc1F)NC(=O)C12CCC(CC1)CN2 [Example 15, N-[(1S)-1-cyano-2-[2-fluoro-4-[4-(oxetan-3-yl)piperazin-1-yl]phenyl]ethyl]-2-azabicyclo[2.2.2]octane-1-carboxamide]

From patent US9440960B2, “Substituted oxetanes and their use as inhibitors of cathepsin C” (Boehringer Ingelheim International GmbH, priority 2014, dated 2016)
